Data published in patent publication US20080064679A1, “Water Soluble Cannabinoids” (priority 2004, published 2008).
“And” between values parts separate entries of the source, which are not always exact repeats. Identical values can stand only once. “Also recorded” adds a separate entry of the source. Like-named read-outs stand apart in the source and are kept apart here.

Legend:
[1] = biological target: T1, human CB2 receptor (Homo sapiens, UniProt P34972); experiment: CB2 receptor binding, [3H]CP55,940 displacement in membranes of transfected cells; settings: mean±SEM, read-out: CB2 Ki
T1 construct: expressed in transfected cells; b94 says HEK for CB2
T1 sequence (P34972 whole entry): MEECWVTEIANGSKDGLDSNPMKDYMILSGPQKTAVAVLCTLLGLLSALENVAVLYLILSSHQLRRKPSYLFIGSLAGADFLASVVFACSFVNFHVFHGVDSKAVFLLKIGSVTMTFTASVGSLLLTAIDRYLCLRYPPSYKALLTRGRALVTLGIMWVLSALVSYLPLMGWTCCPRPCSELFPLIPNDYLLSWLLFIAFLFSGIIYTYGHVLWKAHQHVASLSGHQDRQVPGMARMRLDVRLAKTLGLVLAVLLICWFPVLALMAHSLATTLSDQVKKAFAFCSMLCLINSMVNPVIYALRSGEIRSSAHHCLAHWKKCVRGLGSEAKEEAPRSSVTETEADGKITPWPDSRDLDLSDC
Procedure: cLogP calculations. Absolute solubility determinations were not performed. Rather, cLogP calculations were performed using the CS ChemDraw Ultra software (Cambridge Soft Corporation, Cambridge, Mass.). Receptor Binding. HEK-293 cells stably expressing the human CB1 receptor were cultured in DMEM with 10% FBS and Chinese Hamster Ovary (CHO) cells stably expressing the human CB2 receptor were cultured in DMEM with 10% FCS. Cells were harvested by replacement of the media with cold phosphate-buffered saline containing 1 mM EDTA followed by centrifugation at 1000×g for 5 min at 4° C. The pellet was resuspended in 50 mM Tris-HCl containing 320 mM sucrose, 2 mM EDTA and 5 mM MgCl2 (pH 7.4) (centrifugation buffer), then centrifuged at 1000×g for 10 min at 4° C., and the resulting supernatant was saved. This process was repeated twice. The supernatant fractions were combined and centrifuged at 40,000×g for 30 min at 4° C. The resulting P2 pellet was resuspended in assay buffer (50 mM Tris-HCl (pH 7.4), 3 mM MgCl2, 0.2 mM EGTA, and 100 mM NaCl) and protein was determined by the method of Bradford ENRfu(Bradford 1976). Membranes were stored at −80° C. until use. […] The assay was incubated at 30° C. for 1 hr and terminated by addition of ice cold 50 mM Tris-HCl plus BSA (1 mg/ml) (pH 7.4) followed by filtration under vacuum through Whatman GF/B glass fiber filters with 3 washes with cold Tris buffer. Bound radioactivity was determined by liquid scintillation spectrophotometry at 50% efficiency after extraction by shaking samples for 30-60 min with Budget-Solve scintillation fluid. Data are reported as the mean±SEM of three experiments, each performed in triplicate. Ki values were calculated from displacement data using EBDA (Equilibrium Binding Data Analysis; BIOSOFT, Milltown, N.J.). [^35S]GTPγS Binding Assays. Concentration-effect curves were generated by incubating membranes (10 μg prepared from CB1 expressing cells as described above) in assay buffer containing BSA (1 mg/ml) with various concentrations of test compounds in the presence of 20 μM GDP and 0.1 nM [^35S]GTPγS in a 1 ml total volume. […] Basal binding was assessed in the absence of agonist, and nonspecific binding was measured in the presence of 10 μM GTPγS. The reaction was incubated for 90 min at 30° C. and terminated by filtration under vacuum through Whatman GF/B glass fiber filters with 3 washes with cold (4° C.) Tris buffer (50 mM Tris-HCl, pH 7.4). Bound radioactivity was determined by liquid scintillation spectrophotometry at 95% efficiency after extraction overnight in ScintiSafe Econo 1 scintillation fluid. Data are reported as mean±SEM of three experiments, each performed in triplicate. Nonlinear regression analysis was conducted by iterative fitting using JMP (SAS for Macintosh). Net-stimulated [^35S]GTPγS binding is defined as [^35S]GTPγS binding in the presence of drug minus basal and percent stimulation is expressed as (net stimulated [^35S]GTPγS binding/basal)×100%. Behavioral Evaluations. All animals were allowed to acclimate to the observation room overnight. Behavioral effects were assessed in the tetrad model in order to measure potency in producing antinociception, catalepsy, hypothermia, and hypomobility. The baselines for tail-flick latency (2-4 seconds) and rectal temperature were determined prior to i.v. injections. Baseline rectal temperatures were measured using a telethermometer and a thermometer probe inserted to 25 mm (Yellow Springs Instrument Co., Yellow Springs, Ohio). The mice were then given either an i.v. i.c.v. injection of the analog. The mice were placed in individual photocell activity chambers 5 min later. Spontaneous activity was monitored for 10 min in a Digiscan Animal Activity Monitor (Omnitech Electronice, Inc., Columbus, Ohio) as measured by the number of interruptions of 16 photocell beams per chamber. The total number of beam interruptions during the 10-min period was determined and presented as total counts.

[2] = test system: mice; experiment: Tetrad model, all four behavioral measures together (time course, oral and i.c.v. administration); type: in vivo, mouse; settings: for In vivo potency relative to Δ^9-THC (times more potent): i.v., 1:1:18 vehicle; for Potency following oral administration (four tests) / Time course of effects following oral administration: 10 mg/kg; for Potency following oral administration (four tests): 30 minutes before the start of testing; for Time course of effects following oral administration: different time points before testing
[3] = Stability in buffer, plasma and microsomal enzymes

Compound	Ki ([1]; Tables 2b, 3b, 4a)	Ki ([1]; Table 1B)	also measured
1-(2-methyl-4-N-piperidinobutyryloxy) [O-2374]	1.1 ± 0.1 nM	–	–
CC1=CC[C@@H]2[C@@H](C1)c1c(O)cc(C(C)(C)CCCCC(N)=O)cc1OC2(C)C [O-2352, Carboxamido]	–	0.84 ± 0.05 nM	In vivo potency relative to Δ^9-THC (times more potent) ([2]; mice): slightly more potent than Δ^9-THC
CC1=CC[C@@H]2[C@@H](C1)c1c(O)cc(C(C)(C)CCCCC(=O)N3CCOCC3)cc1OC2(C)C [O-2372, Morpholino-carboxamido]	–	0.57 ± 0.04 nM	–
CC1=CC[C@@H]2[C@@H](C1)c1c(O)cc(C(C)(C)CCCCC(=O)N3CCCCC3)cc1OC2(C)C [O-2373, Piperidino-carboxamido]	–	0.96 ± 0.01 nM	–
CC1=CC[C@@H]2[C@@H](C1)c1c(O)cc(C(C)(C)CCCCC(=O)N3CCN(C)CC3)cc1OC2(C)C [O-2381, Methylepiperazino-carboxamido]	–	389 ± 46 nM	–
CC1=CC[C@@H]2[C@@H](C1)c1c(O)cc(C(C)(C)CCCCC(=O)N3CCCC3)cc1OC2(C)C [O-2399, Pyrrolidino-carboxamido]	–	2.86 ± 0.68 nM	–
CC1=CC[C@@H]2[C@@H](C1)c1c(O)cc(C(C)(C)CCCCC(=O)N3CCCCCC3)cc1OC2(C)C [O-2421, Homopiperidino-carboxamido]	–	3.45 ± 0.58 nM	–
CC1=CC[C@@H]2[C@@H](C1)c1c(O)cc(C(C)(C)CCCCC(=O)NN3CCCCCC3)cc1OC2(C)C [O-2489, N-(Homo-piperidin-1-yl)-carboxamido]	–	35.3 ± 4.48 nM	–
CNC(=O)CCCCC(C)(C)c1cc(O)c2c(c1)OC(C)(C)[C@@H]1CC=C(C)C[C@@H]21 [O-2490, N-(Methyl)carboxamido]	–	3.16 ± 0.75 nM	Maximal effects in hypothermia and catalepsy assays ([2]; dose 1 mg/kg that produced maximal effects in the other two measures): failed to produce maximal effects in hypothermia and catalepsy assays
CC1=CC[C@@H]2[C@@H](C1)c1c(O)cc(C(C)(C)CCCCC(=O)NN3CCCC3)cc1OC2(C)C [O-2543, N-(Pyrrolidin-yl)-carboxamido]	–	10.8 ± 0.08 nM	–
CC1=CC[C@@H]2[C@@H](C1)c1c(O)cc(C(C)(C)CCCCC(=O)NN3CCOCC3)cc1OC2(C)C [O-2544, N-(Morpholin-1-yl)-carboxamido]	–	11.4 ± 0.91 nM	–
CC1=CC[C@@H]2[C@@H](C1)c1c(O)cc(C(C)(C)CCCCn3ccnc3)cc1OC2(C)C [O-2545, Imidazol-1-yl]	0.12 nM and 0.32 nM	–	Time course of effects after i.v. administration ([2]; FIG. 10, 0.24 μmoles/kg i.v., saline): At 1 hr all effects, except ring immobility, are present but only antinociception is present at 2 hours; Activity in the behavioral tests after i.c.v. injection ([2]; i.c.v., analogs dissolved in water, THC in emulphor:ethanol:saline, Table 5 not given): the most potent; In vivo potency relative to Δ^9-THC (times more potent) ([2]; mice): at least 40 fold; Potency following oral administration (four tests) [2]: fully effective in producing antinociception, hypothermia and ring immobility but was only a partial agonist in producing sedation; Time course of effects following oral administration [2]: By four hrs the effects had largely dissipated; also recorded: produce the full range of effects up to 2 hours; Stability in buffer, plasma and microsomal enzymes [3]: excellent stability in buffer and plasma and microsomal enzymes
CC1=CC[C@@H]2[C@@H](C1)c1c(O)cc(C(C)(C)CCCCn3ccnc3C)cc1OC2(C)C [O-2651, 2-Methyl-imidazol-1-y1]	1.22 ± 0.28 nM	–	In vivo potency, fold less potent than the hydrochloride salt of O-2545 ([2]; mice, administered in saline): at least 10 fold
CC1=CC[C@@H]2C(C1)c1c(OC(=O)CCCN(C(C)C)C(C)C)cc(C(C)(C)CCCCC(=O)N3CCOCC3)cc1OC2(C)C (stereo partly shown) [O-2694, Diisopropylaminobutyrate of Δ^8-THC-3-(1,1-dimethyl-6-morpholin-4-yl-6-oxo-hexyl)]	2.77 ± 0.44 nM	–	–
CC1=CC[C@@H]2[C@@H](C1)c1c(O)cc(C(C)(C)CCCCn3cccn3)cc1OC2(C)C [O-2715, Pyrazol-1-yl]	1.52 ± 0.31 nM	–	Time course of effects after i.v. administration ([2]; FIG. 12, 0.3 mg/kg (0.74 μmoles/kg) i.v., vehicle 1:1:18): duration of antinociception and hypothermia exceeded that of sedation and relative immobility; Potency following oral administration (four tests) [2]: active in all tests; Time course of effects following oral administration [2]: negligible effects at one hr; also recorded: effects that lasted only 1 hour
CC1=CC[C@@H]2[C@@H](C1)c1c(O)cc(C(C)(C)CCCCn3cncn3)cc1OC2(C)C [O-2716, 1,2,4-Triazol-1-yl]	0.92 ± 0.07 nM	–	Time course of effects after i.v. administration ([2]; FIG. 11, 0.1 mg/kg (0.24 μmoles/kg) i.v., vehicle 1:1:18): relatively short acting with most of the effects gone by 1 hour and no separation of effects; Time course of effects following oral administration [2]: Maximal effects were observed at 30 min and only a slight decrease in activity was observed at 2 hrs; also recorded: effects lasted at least 2 hours
CC1=CC[C@@H]2[C@@H](C1)c1c(O)cc(C(C)(C)CCCCc3ncc[nH]3)cc1OC2(C)C [O-2737, 1H-Imidazol-2-yl]	14.8 ± 1.14 nM	–	–
